For this assay, the system named is cells in the liver. Put plainly: In vivo screening of LNPs comprising fLuciferase mRNA, bioluminescent imaging (BLI). The arrangement: species or system BALB/C mice. As to conditions: 0.5 mg/kg fLuciferase mRNA intravenously, BLI at 4 hr. The method, then:
To formulate the LNPs, various percentages of one of COMPOUNDS 3, 6, or 12, the phospholipid (DOPE or DOPC), the structural lipid cholesterol (Chol) and 1,2-dimyristoyl-sn-glycerol methoxypolyethylene glycol (DMG-PEG2000; Avanti Polar Lipids, Alabaster, Alabama, USA) were combined to prepare LNP compositions.
Individual 25 mg/ml stock solutions were prepared by solubilizing the lipids in 200-proof HPLC-grade ethanol and stock solutions were stored at −80° C. until formulated. At the time of formulation, the lipid stock solutions were briefly allowed to equilibrate to room temp and then placed on a hot plate maintained at a temperature range of 50-55° C. Subsequently, the hot lipid stock solutions were combined to yield desired final mole percentages.
A 1 mg/ml solution of the 5′-CleanCap-fLuciferase mRNA (TriLink Biotech) to be incorporated into the LNPs was added to 150 mM sodium acetate buffer (pH 5.2) to form a stock solution and kept on ice. The lipid phase was mixed with the aqueous mRNA phase inside a microfluidic chip using a NanoAssemblr® instrument (Precision Nanosystems, Vancouver, BC, Canada) according to the manufacturer's instructions to form LNP compositions comprising encapsulated mRNAs.
The resultant mRNA LNP compositions were then transferred to a Repligen Float-A-Lyzer dialysis device—having a molecular weight cut off (MWCO) of 8-10 kDa (Spectrum Chemical Mfg. Corp, CA, USA) and processed by dialysis against phosphate buffered saline (PBS) (dialysate:dialysis buffer volume at least 1:200 v/v), pH 7.4 overnight at 4° C. (or alternatively room temperature for at least 4 hours), to remove the 25% ethanol and achieve a complete buffer exchange. […]
The location and extent of luciferase expression in treated and control mice were determined at 4 hr by bioluminescent imaging (BLI) of anesthetized mice using an IVIS Lumina in vivo imaging system (Perkin Elmer) according to the manufacturer's instructions. […]

Where “and” joins values, the source holds several entries; their conditions need not be identical. Equal entries are not always repeated.

On to `CCCCCCCCCCC(CN(CCCN(C)CCCN(CC(CCCCCCCCCC)SSCCO)CC(CCCCCCCCCC)SSCCO)CC(CCCCCCCCCC)SSCCO)SSCCO` (stereo not drawn) [Compound 3], for which the “Mean Liver Luciferase Flux” value is 2.72E+08 p/s (LNP with 33.5% moles compound, 32% DOPE, 33.5% Chol, 1% PEG-DMG, lipid:RNA 40 w/w); 6.49E+10 p/s (LNP with 43.3% moles compound, 12% DOPC, 43.3% Chol, 1.5% PEG-DMG, lipid:RNA 100 w/w); 1.94E+11 p/s and 1.16E+11 p/s (LNP with 54% moles compound, 10% DOPC, 35% Chol, 1% PEG-DMG, lipid:RNA 100 w/w, 0.5 mg/kg).

(Values after patent US20260042732A1, “Sulfur-containing Compounds and Compositions Thereof for Delivery of Nucleic Acids” (Poseida Therapeutics, Inc., priority 2022, published 2026).)
